Results on 3 molecules are retold here after patent publication US8628792B2, “Drug cores for sustained release of therapeutic agents” (Mati Therapeutics, Inc., priority 2007, dated 2014).

The structures appear in SMILES notation.

The nature of data set [1]: Bimatoprost bulk sample elution, normalized to ng per device per day. In kind it is physicochemical. The following applies: for zero order elution rate: about 90 days. On the procedure:
Bulk samples of 1% Bimatoprost having a known diameter of 0.076 cm (0.76 mm) were prepared. The height of each sample was determined from the weight and known diameter of the sample.
The calculated heights ranged from 0.33 cm to 0.42 cm. The exposed surface area on each end of each bulk sample was approximately 0.045 cm2, providing volumes of 0.019 cm3 and 0.015 cm3 for the 0.42 and 0.33 cm samples, respectively. The exposed an exposed surface area of samples calculated from the height and diameter without a drug sheath was approximately 0.1 cm2. Three formulations were evaluated: 1) silicone 4011, 1% Bimatoprost, 0% surfactant; 2) silicone 4011, 1% Bimatoprost, approximately 11% surfactant; and 3) silicone 4011, 1% Bimatoprost, approximately 33% surfactant. The elution data measured for the bulk samples with formulation 1, 2 and 3 were normalized to ng per device per day (ng/device/day) assuming a surface area of the bulk device is 0.1 cm2 and the surface area of the clinical device is 0.00078 cm2 (0.3 mm diameter). […] The normalized elution profile is about 10 ng per day. […] Similar formulations can be used with drug core sheaths and a shaped exposed surface of the core exposed to the tear to increase the exposed surface area as described above and deliver the drug in therapeutic amounts over an extended period.

Data set [2] can be described thus: In vitro elution study of drug cores (drug in silicone matrix in polyimide tube) in 7.4 pH buffer, HPLC. The class given is physicochemical. The conditions noted are these: for elution rate: 1 day; for relative elution rate: all time periods to two weeks. The source says:
Drug cores as described above have been fabricated with different cross sectional sizes of 0.006 inches, 0.012 inches, and 0.025 inches, and drug concentrations of 5%, 10% and 20% in a silicone matrix. Theses drug cores can be made with a Syringe Tube and Cartridge Assembly, Mixing Latanoprost with Silicone, and Injecting the mixture into a polyimide tube which is cut to desired lengths and sealed. The length of the drug cores were approximately 0.80 to 0.95 mm, which for a diameter of 0.012 inches (0.32 mm) corresponds to total Latanoprost content in the drug cores of approximately 3.5 μg, 7 μg and 14 μg for concentrations of 5%, 10% and 20%, respectively.
Mix Latanoprost with Silicone. Prepare Latanoprost. Latanoprost is provided as a 1% solution in methylacetate. Place the appropriate amount of solution into a dish and using a nitrogen stream, evaporate the solution until only the Latanoprost remains. Place the dish with the Latanoprost oil under vacuum for 30 minutes. Combine Latanoprost with silicone. Prepare three different concentrations of Latanoprost (5%, 10% and 20%) in silicone Nusil 6385 and inject it into tubing of different diameters (0.006 in, 0.012 in and 0.025 inches) to generate 3×3 matrixes. The percent of Latanoprost to silicone is determined by the total weight of the drug matrix. Calculation: Weight of Latanoprost/(weight of Latanoprost+weight of silicone)×100=percent drug.
Inject tube. 1. Insert Cartridge and Polyimide tubes assembly into 1 ml syringe. 2. Add one drop of catalyst, (MED-6385 Curing Agent) in the syringe. 3. Force excess catalyst out of the polyimide tube with clean air. 4. Fill syringe with silicone drug matrix. 5, Inject tube with drug matrix until the tube is filled or the syringe plunger becomes too difficult to push. 6. Close off the distal end of the polyimide tube and maintain pressure until the silicone begins to solidify. 7. Allow to cure at room temperature for 12 hours. 8. Place under vacuum for 30 minutes. 9. Place tube in right size trim fixture (prepared in house to hold different size tubing) and cut drug inserts to length (0.80-0.95 mm).
Testing. Elution study (in vitro). 1. Place 10 plugs of same size and same concentration per centrifuge tube and add 1.5 ml of 7.4 pH buffer solution to it. 2. Change the solvent with fresh 7.4 pH buffer after appropriate time. 3. Take HPLC of the elutant at 210 nm with PDA detector 2996 using Sunfire C18, 3 mm×10 mm column (Waters Corporation, Milford, Mass.). Acetonitrile and water mixture is used for gradient elution. Calibration was done in house before and after each analysis, using in-house standards with precisely weighed concentration of Latanoprost. 4. Calculate the amount of drug release per day per device for different size tubings having different concentrations of Latanoprost. 5. Plot elution rate vs area and concentration for day 1 and day 14.

The conditions of data set [3]: cited from earlier work.
For data set [4] the following is noted: topical drop to the eye; cited from earlier work.
Where [5] appears, read: 20% bimatoprost in NuSil 6385, 0% salt.
[6] abbreviates: 20% bimatoprost in NuSil 6385, 20% salt.

As for `CCNC(=O)CCC/C=C\C[C@@H]1[C@@H](/C=C/[C@@H](O)CCc2ccccc2)[C@H](O)C[C@@H]1O` [Bimatoprost], in data set [1] (from about ten days to about 90 days, each of the formulations 1-3), the release kinetics result is “approximately zero order release kinetics”. The “zero order elution rate” value is recorded as “about 60 ng per day” in data set [1] (scaled to 0.76 mm exposed diameter (0.0045 cm2)) and “about 100 ng per day” in data set [1] (scaled to exposed surface area about 0.0078 cm2). Moreover, the normalized elution profile entry in data set [1] (silicone 4011, 1% Bimatoprost, 0/11/33% surfactant bulk samples, normalized to 0.3 mm exposed surface diameter (0.00078 cm2)) is “about 10 ng per day”. In addition, the elution rate entry is on record as “about 100 ng per day” in data set [2] (setting [5]); 400 ng per day in data set [2] (20% bimatoprost in NuSil 6385, 10% salt); “about 750 ng/day” in data set [2] (setting [6]). In addition, the relative elution rate entry in data set [2] (setting [5]) is recorded as “lowest elution rate”; in data set [2] (setting [6]), “highest elution rate”.

As to `O=C1OC2(c3ccc(O)cc3Oc3cc(O)ccc32)c2ccccc21` [Fluorescein], in data set [3], the “solubility in water” value was “soluble in water”.

For `CC(C)(C)NC[C@H](O)COc1nsnc1N1CCOCC1` [Timolol], the bioavailability in data set [4] is reported as 30-50%.
